Test results reported in ChEMBL document CHEMBL1124229, “Spiro hydantoin aldose reductase inhibitors” (J Med Chem, 1988).
Blank lines part the entries; values can stand above or below the compound they belong to.

How the values were obtained:
Rattus norvegicus [1] = species: Rattus norvegicus; experiment: Ability to cause 50% reduction in sorbitol levels of sciatic nerve of streptozotocinized rats was determined; type: functional; details: Rattus norvegicus, Sciatic nerve; read-out: ED50
[2] = molecular target: Aldo-keto reductase family 1 member B1 (Homo sapiens, UniProt P15121); experiment: In vitro inhibitory activity towards partially purified human placenta aldose reductase
Rattus norvegicus [3] = species: Rattus norvegicus; experiment: Ability to cause 50% reduction in sorbitol levels of sciatic nerve of streptozotocinized rats was determined; value ranges from 10-25; type: functional
[4] = molecular target: T1, Aldo-keto reductase family 1 member B1 (Bos taurus, UniProt P16116); experiment: Inhibition of partially purified calf lens aldose reductase; value ranges from 10E-4 to 10e-5 M
[5] = molecular target: T1, Aldo-keto reductase family 1 member B1; experiment: In vitro inhibition of partially purified calf lens aldose reductase
Rattus norvegicus [6] = species: Rattus norvegicus; experiment: 50% reduction in sorbitol accumulation in isolated sciatic nerves incubated in the presence of high glucose concentration; type: functional; details: Sciatic nerve
[7] = pKa in DMF/H2O was measured; type: physicochemical
Rattus norvegicus [8] = species: Rattus norvegicus; experiment: Ability to cause 50% reduction in sorbitol levels of sciatic nerve of streptozotocinized rats was determined; value ranges from 0.25-0.75; type: functional
[9] = molecular target: T1, Aldo-keto reductase family 1 member B1; experiment: In vitro inhibitory activity towards partially purified calf lens aldose reductase; value ranges from 10E-6 - 10E-7
Rattus norvegicus [10] = species: Rattus norvegicus; experiment: Ability to cause 50% reduction in sorbitol levels of sciatic nerve of streptozotocinized rats was determined; value ranges from 2.5-5; type: functional
Rattus norvegicus [11] = species: Rattus norvegicus; experiment: Ability to cause 50% reduction in sorbitol levels of sciatic nerve of streptozotocinized rats was determined; value ranges from 1.5-5; type: functional
Rattus norvegicus [12] = species: Rattus norvegicus; experiment: 50% reduction in sorbitol accumulation in isolated sciatic nerves incubated in the presence of high glucose concentration; value ranges from 10E-2 - 10E-3; type: functional; details: Sciatic nerve
[13] = molecular target: T1, Aldo-keto reductase family 1 member B1; experiment: In vitro inhibition of partially purified calf lens aldose reductase; value ranges from 10E-5 to 10E-6
Rattus norvegicus [14] = species: Rattus norvegicus; experiment: Dose causing 50% reduction in sorbitol accumulation in sciatic nerves of streptozotocinized rats, (tid)
[15] = molecular target: T1, Aldo-keto reductase family 1 member B1; experiment: In vitro inhibitory activity towards partially purified calf lens aldose reductase; value ranges from 10E-4 - 10E-6
[16] = molecular target: T1, Aldo-keto reductase family 1 member B1; experiment: In vitro inhibitory activity towards partially purified calf lens aldose reductase; value ranges from 10E-4- 10E-5
Rattus norvegicus [17] = species: Rattus norvegicus; experiment: Ability to cause 50% reduction in sorbitol levels of sciatic nerve of streptozotocinized rats was determined; value ranges from 1.5-10; type: functional
Rattus norvegicus [18] = species: Rattus norvegicus; experiment: Ability to cause 50% reduction in sorbitol levels of sciatic nerve of streptozotocinized rats was determined; value ranges from 25-100; type: functional
Rattus norvegicus [19] = species: Rattus norvegicus; experiment: Ability to cause 50% reduction in sorbitol levels of sciatic nerve of streptozotocinized rats was determined; value ranges from 5-10; type: functional
Rattus norvegicus [20] = species: Rattus norvegicus; experiment: Ability to cause 50% reduction in sorbitol levels of sciatic nerve of streptozotocinized rats was determined; value ranges from 250-500; type: functional
[21] = molecular target: Aldo-keto reductase family 1 member B1 (Rattus norvegicus, UniProt P07943); experiment: In vitro inhibitory activity towards partially purified rat lens aldose reductase

IC50 [2]: > 100 µM
Compound: CN1C(=O)N(C)[C@@]2(CCOc3ccc(F)cc32)C1=O
ED50 (Rattus norvegicus [1]): < 10 mg/kg

IC50 [2]: 100 µM
Compound: CN1C(=O)NC(=O)[C@]12CCOc1ccc(F)cc12
ED50 (Rattus norvegicus [1]): < 10 mg/kg

IC50 [4]: 100 µM
Compound: O=C1NC(=O)C2(CCCc3ccccc32)N1 (configuration not stated)
ED50 (Rattus norvegicus [3]): 10 mg/kg

IC50 [4]: 100 µM
Compound: O=C1NC(=O)C2(CCc3ccccc32)N1 (configuration not stated)
ED50 (Rattus norvegicus [1]): 5 mg/kg
ED50 (Rattus norvegicus [3]): 5 mg/kg

IC50 [5]: 100 µM
Compound: COc1ccc2c(c1)C1(CCC2)NC(=O)NC1=O (configuration not stated)
ED50 (Rattus norvegicus [3]): 10 mg/kg

IC50 (Rattus norvegicus [6]): ~10 µM
IC50 [2]: 8 µM
pKa [7]: 9.5
Compound: O=C1NC(=O)C(N2C(=O)c3cccc4cccc(c34)C2=O)N1 (configuration not stated)

IC50 [5]: > 100 µM
Compound: COc1ccc(F)c2c1CCCC21NC(=O)NC1=O (configuration not stated)
ED50 (Rattus norvegicus [8]): > 25 mg/kg

IC50 [9]: 1 µM
Compound: O=C1NC(=O)C2(CCn3c(=O)ccc4cccc2c43)N1 (configuration not stated)
ED50 (Rattus norvegicus [10]): 2.5 mg/kg

IC50 [5]: < 0.1 µM
Compound: O=C1NC(=O)C2(CCOc3c2cc(Cl)c2ccccc32)N1 (configuration not stated)
ED50 (Rattus norvegicus [11]): 1.5 mg/kg

IC50 (Rattus norvegicus [12]): 10000 µM
IC50 [13]: 10 µM
pKa [7]: 4.9
Compound: O=C(O)C1CCOc2ccc(Cl)cc21 (configuration not stated)
ED50 (Rattus norvegicus [1]): > 25 mg/kg
ED50 (Rattus norvegicus [14]): >0.0001 M/kg

IC50 [15]: 100 µM
Compound: O=C(O)C1CCOc2ccc(F)cc21 (configuration not stated)
ED50 (Rattus norvegicus [1]): > 25 mg/kg

IC50 [5]: 0.1 µM
Compound: O=C1NC(=O)C2(CCOc3ccc(Cl)cc32)N1 (configuration not stated)
ED50 (Rattus norvegicus [8]): 0.25 mg/kg

IC50 [2]: > 100 µM
Compound: CN1C(=O)N[C@]2(CCOc3ccc(F)cc32)C1=O
ED50 (Rattus norvegicus [1]): < 10 mg/kg

IC50 [16]: 100 µM
Compound: COc1ccc2c(c1)CCCC21NC(=O)NC1=O (configuration not stated)
ED50 (Rattus norvegicus [1]): > 25 mg/kg

IC50 [9]: 1 µM
Compound: O=C1NC(=O)C2(CCOc3c2ccc2ncccc32)N1 (configuration not stated)
ED50 (Rattus norvegicus [17]): 1.5 mg/kg

IC50 [5]: 10 µM
Compound: O=c1cnn(Cc2ccccc2)c(=O)[nH]1
ED50 (Rattus norvegicus [18]): 25 mg/kg

IC50 [5]: 10 µM
Compound: O=C1NC(=O)C2(CCSc3ccccc32)N1 (configuration not stated)
ED50 (Rattus norvegicus [19]): 5 mg/kg

IC50 [13]: 10 µM
IC50 (Rattus norvegicus [6]): 1000 µM
pKa [7]: 4.8
Compound: O=C(O)CN1C(=O)c2cccc3cccc(c23)C1=O [ALRESTATIN]
ED50 (Rattus norvegicus [14]): 0.001 M/kg
ED50 (Rattus norvegicus [20]): 250 mg/kg

Compound: C[C@@H]1O[C@@H](Oc2c(-c3ccc(O)c(O)c3)oc3cc(O)cc(O)c3c2=O)[C@H](O)[C@H](O)[C@H]1O [QUERCITRIN]
ED50 (Rattus norvegicus [1]): > 40 mg/kg
IC50 [13]: 10 µM
IC50 [21]: ~0.1 µM
